Assay results published in patent US6805865B1, “Compositions and methods for treating cancer and hyperproliferative disorders” (EntreMed, Inc., priority 1993, dated 2004).

Legend:
bFGF = assay: Serum antibody response (ELISA) after vaccination with bFGF peptides conjugated to lipid A liposomes; assay type: in vivo; conditions: C57BL/6J mice, peptide covalently conjugated to liposomal vesicles containing lipid A
Source text: Both peptides A and B were incorporated into lipid A containing liposomes and used separately in a vaccination protocol. Peptides were conjugated to liposomes according to the methods and protocols described above in Example 8. Mice were immunized and boosted twice, bled and pooled serum analyzed for anti-peptide antibody titer and crossreactivity to bFGF by ELISA.
The comparison of titers and crossreactivity for serum from mice vaccinated with whole bFGF or with the liposomal heparin binding domain peptide of bFGF vaccine is shown in FIG. 4 and a comparison of the titers and crossreactivity for serum from mice vaccinated with whole bFGF or the liposomal receptor binding domain peptide of bFGF vaccine is shown in FIG. 5.

HUVEC = assay: bFGF stimulated HUVEC proliferation in the presence of bFGF peptides; assay type: cell-based; conditions: free synthetic peptide, in vitro
[1] = tested on: bFGF-induced vascularization; assay: bFGF-containing gelatin sponge implanted on liver of vaccinated mice, histology; assay type: in vivo; conditions: peptide-liposome vaccinated mice, sponge with recombinant human bFGF on liver, 14 days after implantation
Source text: Following the vaccination protocol, mice were challenged with bFGF impregnated sponges and neovascularization assessed after 14 days, the results are shown in FIG. 6.
In order to determine if generation of antibody to the bFGF molecule has an effect on bFGF-induced vascularization, gelatin sponges containing recombinant human bFGF were implanted onto the left lobe of the liver of mice following vaccination with the liposomal lipid A controls, liposomes containing the heparin binding domain peptide, liposome containing the receptor binding domain peptide, or PBS. Fourteen days following implantation, the sponges were removed. Vascularity and leukocyte infiltration were assessed histologically. Well defined blood vessels containing red blood cells were evident in sponges removed from mice vaccinated with control preparations (liposomal lipid A and PBS). In addition, there was an abundant amount of cellular infiltration, consisting of white blood cells and fibroblasts. […] Although red blood cells were present in the histological sections of the sponge taken from mice vaccinated with the heparin binding domain peptide, they lacked well defined structures surrounding them.

B16BL6 = B16BL6 experimental lung metastasis after intravenous challenge of vaccinated mice; assay type: in vivo; conditions: peptide conjugated to liposomes, vaccinated and boosted, intravenous melanoma challenge, 14 days
Source text: Fourteen days after the mice were vaccinated, boosted, and challenged with B16B16 murine melanoma, the animals were sacrificed and the lungs were removed and numbers of melanotic tumor nodules on the surface were counted.
Two weeks following the final boost , mice were intravenously challenged with B16BL6. Mice were sacrificed at day 14 following challenge. […] The heparin binding domain peptide bFGF covalently linked to liposomes was used as a positive control in this experiment.

B16-BL6 melanoma cells = assay: B16-BL6-containing gelatin sponge implanted on liver of vaccinated mice, histology; assay type: in vivo; conditions: peptide-liposome vaccinated mice, 14 days after implantation
Source text: In order to determine if vaccination could inhibit the angiogenesis induced by a tumor, gelatin sponges were implanted containing B16-BL6 melanoma cells onto the liver of mice following vaccination with control liposomes (liposomal lipid A), liposomes linked to the heparin binding domain peptide, liposomes linked to the receptor binding domain peptide, or PBS. Fourteen days following implantation, the sponges are removed and examined histologically. Sponges removed from mice vaccinated with liposomal lipid A and PBS contained viable and proliferating B16BL6 tumor cells. In addition, neovascularization into the sponge was abundant. […] Similar to findings from sponges containing bFGF, there was a tremendous amount of red blood cells lacking defined structures surrounding them.

LLC-LM = LLC-LM experimental metastatic model, intravenous challenge, lung weight; assay type: in vivo, mice; conditions: peptide in liposome format, 3 inoculations two weeks apart, day 17, based on lung weight, versus control
Procedure: Efficacy of vaccination of mice with the heparin binding domain peptide bFGF in a liposome format was determined in the LLC-LM experimental metastatic model.
Mice were vaccinated with the heparin binding domain peptide of bFGF in a liposome format using the same vaccination regimen as in the B16BL6 experiments above (3 inoculations two weeks apart). Two weeks following the final boost, mice were intravenously challenged with LLC-LM. At day 17, the control (no treatment) mice began to succumb to the tumor burden in the lung. All groups were sacrificed. Lungs were removed and analyzed based on lung weight. Normal lung weight was subtracted out of the treated and non-treated groups to determine the T/C. Vaccination with the heparin binding domain peptide inhibited the growth and development of LLC-LM experimental metastasis by 94% when compared to control. These lungs have been photographed and will be assessed histologically.

B16BL6 melanoma = assay: Growth of B16BL6 tumor cells in vitro with peptide and bFGF (cell counts); assay type: cell-based, murine; conditions: 10,000 cells/well, various peptide concentrations, media with 5 ng/ml bFGF
Procedure: B16BL6 melanoma were plated at 10,000 cells/well in a 24 well plate and incubated overnight. […] This example provides methods useful for selecting peptides useful for the methods and compositions of the present invention.

Row | Sequence | antibody response in serum (bFGF) | bFGF stimulated HUVEC proliferation (HUVEC) | cellular infiltration and neovascularization of bFGF sponge [1] | mean number of lung metastases (B16BL6) | neovascularization and tumor growth in B16-BL6 sponge (B16-BL6 melanoma cells) | inhibition of growth and development of LLC-LM experimental metastasis (LLC-LM) [%] | growth of B16BL6 cells, cell counts (B16BL6 melanoma) | bFGF stimulated HUVEC proliferation (HUVEC; listed as heparin-binding domain peptide)
1 | SNNYNTYRSRKYSSWYVALKR (listed as Homo sapiens) [receptor binding domain peptide, used free or conjugated to lipid A liposomes] | no antibody response | inhibited | – | – | – | – | – | –
2 | YCKNGGFFLRIHPDGRVDGVREKSDPHIKLQLQAEERGV VSIKGV (YCKNGGFFLRIHPDGRVDGVREKSDPHIKLQLQAEERGVVSIKGV; listed as Homo sapiens) [heparin binding domain peptide, used free or conjugated to lipid A liposomes] | antibody response | inhibitory effect | lack of cellular infiltration and neovascularization | significantly reduces | blocked neovascularization and caused ablation of tumor growth and development | 94 | no significant effect | inhibited
